Experiments:
Nurr1 [1] = molecular target: T1, Nurr1 (Homo sapiens, UniProt P43354); assay: Binding SPR
Target sequence in this assay (P43354 360-595 limits assumed): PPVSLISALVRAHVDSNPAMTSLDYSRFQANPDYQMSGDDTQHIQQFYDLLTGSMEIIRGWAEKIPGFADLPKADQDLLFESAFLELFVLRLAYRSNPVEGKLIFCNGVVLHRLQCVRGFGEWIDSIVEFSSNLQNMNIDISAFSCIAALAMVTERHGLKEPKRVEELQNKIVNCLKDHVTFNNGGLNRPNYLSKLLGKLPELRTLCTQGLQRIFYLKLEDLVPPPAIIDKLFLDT

Nurr1 [2] = molecular target: T1, Nurr1; assay: Binding MST
Target sequence in this assay (P43354 360-595 limits assumed): as above

Vmat2 in MN9D = assay: cells; type: cell-based; settings: cpds tested at 10 μM, analogs of compound 87, read-out: qPCR MN9D Vmat2
TH in SHSY5Y = assay: qPCR SHSY5Y TH; type: cell-based; settings: Homo sapiens, SH-SY5Y, cpds tested at 10 μM
Nurr1 in MN9D = assay: qPCR MN9D Nurr1; type: cell-based; settings: cpds tested at 10 μM, analogs of compound 87
Nurr1 [3] = molecular target: T1, Nurr1; assay: Luciferase cellular assay; type: cell-based; design: expressed in transfected cells; host or cells: SK-N-BE(2)C cells (ATCC CRL-2268); settings: cpds tested at 10 μM; analogs of compound 87
Target sequence in this assay (P43354 328-598): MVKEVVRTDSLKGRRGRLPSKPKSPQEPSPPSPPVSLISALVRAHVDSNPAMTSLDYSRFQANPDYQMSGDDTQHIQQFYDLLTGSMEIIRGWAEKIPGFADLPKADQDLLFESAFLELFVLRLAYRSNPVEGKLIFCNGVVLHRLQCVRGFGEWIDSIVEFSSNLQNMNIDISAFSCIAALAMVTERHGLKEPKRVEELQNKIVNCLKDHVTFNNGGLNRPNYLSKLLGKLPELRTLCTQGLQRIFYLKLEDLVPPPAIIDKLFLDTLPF

SMILES	Binding SPR (Nurr1 [1]; analogs of compound 87)	Binding MST (Nurr1 [2]; analogs of compound 87)	fold induction at 10 µM (Vmat2 in MN9D)	further results
CC(C)(NC(=O)c1cc(Cl)cc(Cl)c1)c1cn(CCC(=O)O)nn1 [GWL 2.129, 3-(4-(2-(3,5-dichlorobenzamido)propan-2-yl)-1H-1,2,3-triazol-1-yl)propanoic acid]	+	–	–	–
CC(C)(NC(=O)c1cc(Cl)cc(Cl)c1)c1cn(CC(=O)O)nn1 [GWL 2.131, 2-(4-(2-(3,5-dichlorobenzamido)propan-2-yl)-1H-1,2,3-triazol-1-yl)acetic acid]	+	–	–	–
CC(C)(NC(=O)c1cc(Cl)cc(Cl)c1)c1cn(CCC(N)=O)nn1 [GWL 2.154, N-(2-(1-(3-amino-3-oxopropyl)-1H-1,2,3-triazol-4-yl)propan-2-yl)-3,5-dichlorobenzamide]	+	–	–	–
CC(C)(NC(=O)c1cc(Cl)cc(Cl)c1)c1cn(-c2ccoc2)nn1 [GWL 3.001, 3,5-dichloro-N-(2-(1-(furan-3-yl)-1H-1,2,3-triazol-4-yl)propan-2-yl)benzamide]	+	–	–	–
CC(C)(NC(=O)c1cc(Cl)cc(Cl)c1)c1cn(CC(N)=O)nn1 [GWL 3.008, N-(2-(1-(2-amino-2-oxoethyl)-1H-1,2,3-triazol-4-yl)propan-2-yl)-3,5-dichlorobenzamide]	+	+	–	–
O=C(COc1ccc(Cl)c(Cl)c1)NCCc1ccc(O)c(O)c1 [SP 60, 2-(3,4-dichlorophenoxy)-N-(3,4-dihydroxyphenethyl)acetamide]	–	–	–	Binding MST (Nurr1 [2]; analogs of compound 85): +; Binding SPR (Nurr1 [1]; analogs of compound 85): +
CCn1cc(C(C)(C)NC(=O)c2cc(Cl)cc(Cl)c2)nn1 [SP 65, 3,5-dichloro-N-(2-(1-ethyl-1H-1,2,3-triazol-4-yl)propan-2-yl)benzamide]	+	+	–	–
O=C(COc1ccc(Cl)c(Cl)c1)NCc1ccc(O)c(O)c1 [SP 95, 2-(3,4-dichlorophenoxy)-N-(3,4-dihydroxybenzyl)acetamide]	–	–	–	Binding MST (Nurr1 [2]; analogs of compound 85): +; Binding SPR (Nurr1 [1]; analogs of compound 85): +
CC(C)(NC(=O)c1cc(Cl)cc(Cl)c1)c1cn(Cc2ccccc2)nn1 [SP 98, N-(2-(1-benzyl-1H-1,2,3-triazol-4-yl)propan-2-yl)-3,5-dichlorobenzamide]	+	+	–	–
CC(C)(NC(=O)c1cc(Cl)cc(Cl)c1)c1cn(CCc2ccccc2)nn1 [SP 99, 3,5-dichloro-N-(2-(1-phenethyl-1H-1,2,3-triazol-4-yl)propan-2-yl)benzamide]	+	+	–	–
CC(C)(NC(=O)c1cc(Cl)cc(Cl)c1)c1cn(CCc2ccc(Cl)c(Cl)c2)nn1 [SP 100, 3,5-dichloro-N-(2-(1-(3,4-dichlorophenethyl)-1H-1,2,3-triazol-4-yl)propan-2-yl)benzamide]	+	–	–	–
CC(C)(NCc1cc(Cl)cc(Cl)c1)c1cn(CCc2ccc(Cl)c(Cl)c2)nn1 [SP 136, N-(3,5-dichlorobenzyl)-2-(1-(3,4-dichlorophenethyl)-1H-1,2,3-triazol-4-yl)propan-2-amine]	+	+	–	–
CC(C)(NC(=O)c1ccccc1)c1cn(CCc2ccc(Cl)c(Cl)c2)nn1 [SP 138, N-(2-(1-(3,4-dichlorophenethyl)-1H-1,2,3-triazol-4-yl)propan-2-yl)benzamide]	+	+	–	–
CC(C)(NC(=O)c1ccc(Cl)c(Cl)c1)c1cn(CCc2ccc(Cl)c(Cl)c2)nn1 [SP 146, 3,4-dichloro-N-(2-(1-(3,4-dichlorophenethyl)-1H-1,2,3-triazol-4-yl)propan-2-yl)benzamide]	–	–	–	Binding SPR (Nurr1 [1]; analogs of compound 85): +
CC(C)(NC(=O)c1cc(Cl)cc(Cl)c1)c1cn(CCc2ccc(Br)cc2)nn1 [SP 147, N-(2-(1-(4-bromophenethyl)-1H-1,2,3-triazol-4-yl)propan-2-yl)-3,5-dichlorobenzamide]	+	–	–	–
CC(=O)SCCn1cc(C(C)(C)NC(=O)c2cc(Cl)cc(Cl)c2)nn1 [SP 151, S-2-(4-(2-(3,5-dichlorobenzamido)propan-2-yl)-1H-1,2,3-triazol-1-yl)ethyl ethanethioate]	–	–	> 1.5	–
CC(C)(NC(=O)c1cc(Cl)cc(Cl)c1)c1cnn(CCS)c1 [SP 153, 3,5-dichloro-N-(2-(1-(2-mercaptoethyl)-1H-pyrazol-4-yl)propan-2-yl)benzamide]	+++	+++	> 1.5	fold induction at 10 µM (TH in SHSY5Y): > 4; fold induction at 10 µM (Nurr1 in MN9D): > 4

SMILES	Binding SPR (Nurr1 [1]; analogs of compound 87)	Binding MST (Nurr1 [2]; analogs of compound 87)	fold induction at 10 µM (Vmat2 in MN9D)	further results
CC(C)(NC(=O)c1cc(Cl)cc(Cl)c1)c1cnn(CCN)c1 [SP 155, N-(2-(1-(2-aminoethyl)-1H-pyrazol-4-yl)propan-2-yl)-3,5-dichlorobenzamide]	+	+	–	–
CC(C)(NC(=O)c1ccc(Cl)c(Cl)c1)c1cn(CCS)nn1 [SP 157, 3,4-dichloro-N-(2-(1-(2-mercaptoethyl)-1H-1,2,3-triazol-4-yl)propan-2-yl)benzamide]	+	+++	> 4	Luciferase (Nurr1 [3]): +++ (+++ =>4−fold)
CC(C)(NC(=O)c1cc(F)cc(F)c1)c1cn(CCS)nn1 [SP 158, 3,5-difluoro-N-(2-(1-(2-mercaptoethyl)-1H-1,2,3-triazol-4-yl)propan-2-yl)benzamide]	+	++	–	–
C=CC(=O)n1cc(C(C)(C)NC(=O)c2cc(Cl)cc(Cl)c2)cn1 [SP 162, N-(2-(1-acryloyl-1H-pyrazol-4-yl)propan-2-yl)-3,5-dichlorobenzamide]	–	++	–	–
CC(C)C(=O)SCCn1cc(C(C)(C)NC(=O)c2cc(Cl)cc(Cl)c2)nn1 [SP 163, S-2-(4-(2-(3,5-dichlorobenzamido)propan-2-yl)-1H-1,2,3-triazol-1-yl)ethyl 2-methylpropanethioate]	–	–	> 4	fold induction at 10 µM (TH in SHSY5Y): > 1.5
CC(C)(NC(=O)c1cc(Cl)cc(Cl)c1)c1cn(CCSC(=O)c2ccccc2)nn1 [SP 164, S-2-(4-(2-(3,5-dichlorobenzamido)propan-2-yl)-1H-1,2,3-triazol-1-yl)ethyl benzothioate]	+	–	> 4	–
CC(C)(NC(=O)c1cc(Cl)cc(Cl)c1)c1cnn(COCC[Si](C)(C)C)c1 [SP 174, 3,5-dichloro-N-(2-(1-((2-(trimethylsilyl)ethoxy)methyl)-1H-pyrazol-4-yl)propan-2-yl)benzamide]	+	–	–	fold induction at 10 µM (Nurr1 in MN9D): > 4
COc1ccc(Cn2cc(C(C)(C)NC(=O)c3cc(Cl)cc(Cl)c3)nn2)cc1 [SP 178, 3,5-dichloro-N-(2-(1-(4-methoxybenzyl)-1H-1,2,3-triazol-4-yl)propan-2-yl)benzamide]	–	+	–	–
CSSCCn1cc(C(C)(C)NC(=O)c2cc(Cl)cc(NC(C)=O)c2)nn1 [SP 183]	+	+	–	–
CC(=O)SCCn1cc(C(C)(C)NC(=O)c2cc(Cl)cc(Cl)c2)cn1 [SP 184, S-2-(4-(2-(3,5-dichlorobenzamido)propan-2-yl)-1H-pyrazol-1-yl)ethyl ethanethioate]	–	–	> 1.5	fold induction at 10 µM (Nurr1 in MN9D): > 4
CC(=O)SCCn1cc(C(C)(C)NC(=O)c2cc(Cl)cc(N3CCN(C)CC3)c2)nn1 [SP 186, S-2-(4-(2-(3-chloro-5-(4-methylpiperazin-1-yl)benzamido)propan-2-yl)-1H-1,2,3-triazol-1-yl)ethyl ethanethioate]	–	–	> 1.5	Luciferase (Nurr1 [3]): ++ (++ => 1.5-fold)
COc1cc(OC)cc(C(=O)NC(C)(C)c2cn(CCS)nn2)c1 [SP 191, N-(2-(1-(2-mercaptoethyl)-1H-1,2,3-triazol-4-yl)propan-2-yl)-3,5-dimethoxybenzamide]	+	++	> 1.5	fold induction at 10 µM (Nurr1 in MN9D): > 4
COc1cc(OC)cc(C(=O)NC(C)(C)c2cn(CCSC(C)=O)nn2)c1 [SP 193, S-2-(4-(2-(3,5-dimethoxybenzamido)propan-2-yl)-1H-1,2,3-triazol-1-yl)ethyl ethanethioate]	–	–	> 1.5	–
CC(=O)SCCn1cc(C(C)(C)NC(=O)c2cnc3ccccc3c2)nn1 [SP 194, S-2-(4-(2-(quinoline-3-carboxamido)propan-2-yl)-1H-1,2,3-triazol-1-yl)ethyl ethanethioate]	–	–	> 1.5	fold induction at 10 µM (Nurr1 in MN9D): > 4
C=CC(=O)NNC(=O)COc1ccc(Cl)c(Cl)c1 [UNI6-001, N′-(2-(3,4-dichlorophenoxy)acetyl)acrylohydrazide]	–	–	–	Binding MST (Nurr1 [2]; analogs of compound 85): +
C=CS(=O)(=O)NNC(=O)COc1ccc(Cl)c(Cl)c1 [UNI6-003, N′-(2-(3,4-dichlorophenoxy)acetyl)ethenesulfonohydrazide]	–	–	–	Binding MST (Nurr1 [2]; analogs of compound 85): +
